# Assay results reported in article PMC2000878, “Module structure of interphotoreceptor retinoid-binding protein (IRBP) may provide bases for its complex role in the visual cycle – structure/function study of Xenopus IRBP” (BMC Biochemistry, 2007).
# Read-outs that look alike come from different tables or passages of the source.
# Key:
# full-length Xenopus IRBP = molecular target: T1, full-length Xenopus IRBP (Xenopus laevis, UniProt Q7SZI7); assay: Fluorometric titration (ligand fluorescence enhancement, protein quenching, energy transfer); format: binding
# T1 construct: We expressed the full-length IRBP as well as its individual modules as thioredoxin-fusion proteins using pTrxFus and pThioHis vectors; made in house; host or cells: E. coli Top10 (pThioHis)
# T1 sequence (Q7SZI7 23-1219): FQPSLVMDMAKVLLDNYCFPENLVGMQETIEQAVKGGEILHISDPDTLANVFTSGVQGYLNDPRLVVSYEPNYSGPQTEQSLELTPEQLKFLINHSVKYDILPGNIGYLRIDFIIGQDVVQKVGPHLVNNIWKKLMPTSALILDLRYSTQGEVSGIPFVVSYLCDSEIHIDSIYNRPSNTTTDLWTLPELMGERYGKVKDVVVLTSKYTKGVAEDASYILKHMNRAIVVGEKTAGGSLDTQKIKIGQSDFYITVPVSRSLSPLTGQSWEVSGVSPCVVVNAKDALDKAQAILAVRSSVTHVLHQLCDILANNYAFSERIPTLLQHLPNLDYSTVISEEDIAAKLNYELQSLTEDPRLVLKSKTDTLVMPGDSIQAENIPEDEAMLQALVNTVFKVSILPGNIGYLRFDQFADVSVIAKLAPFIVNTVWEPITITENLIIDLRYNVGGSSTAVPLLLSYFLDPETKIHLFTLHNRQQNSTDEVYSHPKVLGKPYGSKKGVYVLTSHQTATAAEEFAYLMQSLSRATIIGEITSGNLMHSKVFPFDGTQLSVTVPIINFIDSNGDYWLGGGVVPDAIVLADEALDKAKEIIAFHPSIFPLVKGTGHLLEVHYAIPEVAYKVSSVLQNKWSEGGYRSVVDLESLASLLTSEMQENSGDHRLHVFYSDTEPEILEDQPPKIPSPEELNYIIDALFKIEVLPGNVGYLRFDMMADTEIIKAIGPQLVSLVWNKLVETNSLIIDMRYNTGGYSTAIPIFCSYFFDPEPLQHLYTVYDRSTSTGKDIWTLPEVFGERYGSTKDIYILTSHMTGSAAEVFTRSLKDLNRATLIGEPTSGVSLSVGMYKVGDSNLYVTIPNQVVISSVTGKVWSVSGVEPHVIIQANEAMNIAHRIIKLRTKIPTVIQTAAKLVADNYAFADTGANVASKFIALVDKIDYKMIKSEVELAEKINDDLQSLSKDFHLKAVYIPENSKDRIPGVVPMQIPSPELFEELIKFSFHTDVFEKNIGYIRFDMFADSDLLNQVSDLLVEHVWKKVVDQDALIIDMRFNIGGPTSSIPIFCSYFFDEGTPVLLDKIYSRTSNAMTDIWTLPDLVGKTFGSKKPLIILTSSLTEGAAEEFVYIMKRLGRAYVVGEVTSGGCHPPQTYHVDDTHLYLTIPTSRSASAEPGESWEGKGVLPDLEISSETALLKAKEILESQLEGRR
# Source text: The binding parameters of retinoid-binding proteins including IRBP may be determined by fluorescence spectroscopy. The method utilizes changes in quantum yield occurring during ligand binding. Such changes are represented by enhancement of ligand fluorescence, quenching of intrinsic protein fluorescence, and transfer of energy from protein to bound ligand. Fluorescence enhancement occurs if the quantum yield of the ligand's fluorescence is higher in the hydrophobic environment of the ligand-binding domain compared to that outside of the domain.
# […] We previously derived an equation that is generally useful for describing such quantum yield changes that are consequent upon ligand binding. This equation has been previously applied to the analysis of binding by monitoring the enhancement of retinol fluorescence. In this case, […], the fluorescence enhancement (Fenh) depends on the total retinol concentration (Rt), the dissociation constant (Kd ^all-trans), the number of retinol-binding sites per protein molecule (N) and the total protein concentration (Pt).
# (§1) Assuming that there is a single type of noninteracting site on the protein, (Fenh) is expected to be linearly related to the concentration of bound retinol molecules. Fenh is given by the relation
# (§2) Fenh=C1+C2[Rtall−trans−(Rtall−trans+NPt+Kdall−trans)^2−4NPtRtall−trans] MathType@MTEF@5@5@+=feaafiart1ev1aaatCvAUfKttLearuWrP9MDH5MBPbIqV92AaeXatLxBI9gBaebbnrfifHhDYfgasaacH8akY=wiFfYdH8Gipec8Eeeu0xXdbba9frFj0=OqFfea0dXdd9vqai=hGuQ8kuc9pgc9s8qqaq=dirpe0xb9q8qiLsFr0=vr0=vr0dc8meaabaqaciaacaGaaeqabaqabeGadaaakeaacqWGgbGrdaWgaaWcbaGaemyzauMaemOBa4MaemiAaGgabeaakiabg2da9iabdoeadnaaBaaaleaacqaIXaqmaeqaaOGaey4kaSIaem4qam0aaSbaaSqaaiabikdaYaqabaGcdaWadaqaaiabdkfasnaaDaaaleaacqWG0baDaeaacqWGHbqycqWGSbaBcqWGSbaBcqGHsislcqWG0baDcqWGYbGCcqWGHbqycqWGUbGBcqWGZbWCaaGccqGHsisldaGcaaqaamaabmaabaGaemOuai1aa0baaSqaaiabdsha0bqaaiabdggaHjabdYgaSjabdYgaSjabgkHiTiabdsha0jabdkhaYjabdggaHjabd6gaUjabdohaZbaakiabgUcaRiabd6eaojabdcfaqnaaBaaaleaacqWG0baDaeqaaOGaey4kaSIaem4saS0aa0baaSqaaiabdsgaKbqaaiabdggaHjabdYgaSjabdYgaSjabgkHiTiabdsha0jabdkhaYjabdggaHjabd6gaUjabdohaZbaaaOGaayjkaiaawMcaamaaCaaaleqabaGaeGOmaidaaOGaeyOeI0IaeGinaqJaemOta4Kaemiuaa1aaSbaaSqaaiabdsha0bqabaGccqWGsbGudaqhaaWcbaGaemiDaqhabaGaemyyaeMaemiBaWMaemiBaWMaeyOeI0IaemiDaqNaemOCaiNaemyyaeMaemOBa4Maem4CamhaaaqabaaakiaawUfacaGLDbaaaaa@8490@
# The equation was fit to the data by nonlinear least-squares analysis. […] For the quenching studies the inner filter effect was accounted for by graphical correction as previously described. Fluorescence measurements were made using an SLM 8000TM C photon counting spectrofluorometer corrected for wavelength dependence of source energy and detector response.
# Xenopus IRBP Module 3 = molecular target: T2, Xenopus IRBP Module 3 (Xenopus laevis, UniProt Q7SZI7); assay: Fluorometric titration (enhancement, quenching); format: binding
# T2 construct: cDNAs corresponding to the full-length IRBP, module 1, and module 2 were expressed in pThioHis; modules 3 and 4 were expressed in pTrxFus; made in house; host or cells: E. coli GI724 / GI698 (pTrxFus)
# T2 sequence (Q7SZI7 616-922): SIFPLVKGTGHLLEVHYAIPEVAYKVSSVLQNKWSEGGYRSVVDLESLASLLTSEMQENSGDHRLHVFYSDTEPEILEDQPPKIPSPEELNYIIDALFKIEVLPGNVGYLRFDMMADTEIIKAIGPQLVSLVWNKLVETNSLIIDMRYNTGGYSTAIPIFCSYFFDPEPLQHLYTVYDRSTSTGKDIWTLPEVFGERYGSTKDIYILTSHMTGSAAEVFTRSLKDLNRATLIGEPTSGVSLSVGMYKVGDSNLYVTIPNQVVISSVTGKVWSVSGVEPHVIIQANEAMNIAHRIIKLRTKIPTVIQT
# Source text: (§3) Enhancement of retinol fluorescence and quenching of the intrinsic protein fluorescence were used to monitor binding of all-trans retinol to the recombinant IRBPs. We previously derived an equation that is generally useful for describing such quantum yield changes that are consequent upon ligand binding. This equation has been previously applied to the analysis of binding by monitoring the enhancement of retinol fluorescence. In this case, where excitation is at 330 nm and emission is monitored at 480, the fluorescence enhancement (Fenh) depends on the total retinol concentration (Rt), the dissociation constant (Kd ^all-trans), the number of retinol-binding sites per protein molecule (N) and the total protein concentration (Pt).
# as §1, §2
# (§4) The equation was fit to the data by nonlinear least-squares analysis. To follow the quenching of the protein's intrinsic fluorescence the excitation and emission wavelengths were set to 280 nm and 340 nm, respectively, while the protein was titrated with all-trans retinol. For the quenching studies the inner filter effect was accounted for by graphical correction as previously described. Fluorescence measurements were made using an SLM 8000TM C photon counting spectrofluorometer corrected for wavelength dependence of source energy and detector response.
# Xenopus IRBP Module 4 = molecular target: T3, Xenopus IRBP Module 4 (Xenopus laevis, UniProt Q7SZI7); assay: Fluorometric titration (enhancement, quenching); format: binding
# T3 construct: cDNAs corresponding to the full-length IRBP, module 1, and module 2 were expressed in pThioHis; modules 3 and 4 were expressed in pTrxFus; made in house; host or cells: E. coli GI724 / GI698 (pTrxFus)
# T3 sequence (Q7SZI7 923-1219): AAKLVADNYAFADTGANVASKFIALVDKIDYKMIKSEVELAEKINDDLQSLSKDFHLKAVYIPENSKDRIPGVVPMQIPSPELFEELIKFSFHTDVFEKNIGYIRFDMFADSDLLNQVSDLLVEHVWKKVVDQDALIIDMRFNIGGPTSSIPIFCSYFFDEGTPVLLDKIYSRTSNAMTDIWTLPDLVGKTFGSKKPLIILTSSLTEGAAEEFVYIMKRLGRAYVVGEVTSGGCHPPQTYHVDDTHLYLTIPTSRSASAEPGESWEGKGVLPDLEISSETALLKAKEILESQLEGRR
# Source text: as §3, §1, §2, §4
# Xenopus IRBP Module 2 = molecular target: T4, Xenopus IRBP Module 2 (Xenopus laevis, UniProt Q7SZI7); parameters: method as in Loew et al. Exp Eye Res. 2001, 73:257–264; details: ref Loew et al. Exp Eye Res. 2001, 73:257–264, cited from earlier work
# T4 construct: cDNAs corresponding to the full-length IRBP, module 1, and module 2 were expressed in pThioHis; modules 3 and 4 were expressed in pTrxFus; made in house; host or cells: E. coli Top10 (pThioHis)
# T4 sequence (Q7SZI7 319-617 limits assumed): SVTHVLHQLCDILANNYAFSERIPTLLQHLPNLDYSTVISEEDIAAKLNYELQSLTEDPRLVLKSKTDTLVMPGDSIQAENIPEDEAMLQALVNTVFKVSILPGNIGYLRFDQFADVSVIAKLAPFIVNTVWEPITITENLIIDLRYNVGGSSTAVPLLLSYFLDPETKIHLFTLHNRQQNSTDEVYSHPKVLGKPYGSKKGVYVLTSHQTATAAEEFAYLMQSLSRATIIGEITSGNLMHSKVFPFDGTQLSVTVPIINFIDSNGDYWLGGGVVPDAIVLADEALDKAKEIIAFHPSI
# Xenopus IRBP Module 1 = Xenopus IRBP Module 1 (Xenopus laevis, UniProt Q7SZI7); assay: Fluorometric titration (enhancement, quenching); format: binding; parameters: cDNAs corresponding to the full-length IRBP, module 1, and module 2 were expressed in pThioHis; modules 3 and 4 were expressed in pTrxFus; made in house; host or cells: E. coli Top10 (pThioHis)
# Chain of Xenopus IRBP Module 1 (Q7SZI7 23-315): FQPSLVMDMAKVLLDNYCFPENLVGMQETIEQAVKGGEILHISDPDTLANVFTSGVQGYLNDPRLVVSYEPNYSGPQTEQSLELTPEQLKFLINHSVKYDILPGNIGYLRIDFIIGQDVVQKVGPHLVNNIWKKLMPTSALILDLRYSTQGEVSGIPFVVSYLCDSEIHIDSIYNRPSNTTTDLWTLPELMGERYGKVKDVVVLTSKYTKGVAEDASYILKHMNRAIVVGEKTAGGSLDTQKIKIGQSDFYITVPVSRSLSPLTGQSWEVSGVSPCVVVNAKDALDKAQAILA
# Source text: as §3, §1, §2, §4
# [1] = 9-AS fluorescence enhancement, ex 360 nm, em 440 nm
# [2] = 9-AS fluorescence enhancement, ex 360 nm, em 440 nm, read-out: Kd, Enhancement
# [3] = quenching by 9-AS, ex 280 nm, em 340 nm
# [4] = quenching by 9-AS, ex 280 nm, em 340 nm, read-out: Kd, Quenching
compound,measurement,setting,value
"CCCCCCCCCC(CCCCCCCC(=O)O)OC(=O)c1c2ccccc2cc2ccccc12 (centres unmarked) [9-AS, 9-(9-anthroyloxy) stearic acid]","Binding sites (N), Enhancement",full-length Xenopus IRBP; [1],2.58 ± 0.17
same,Kd,full-length Xenopus IRBP; [2],280 ± 70 nM
same,"Binding sites (N), Quenching","full-length Xenopus IRBP; quenching of protein fluorescence by 9-AS, ex 280 nm, em 340 nm",0.18 ± 0.29
same,Kd,"full-length Xenopus IRBP; quenching of protein fluorescence by 9-AS, ex 280 nm, em 340 nm, read-out: Kd, Quenching",290 ± 110 nM
same,"Binding sites (N), Enhancement",Xenopus IRBP Module 3; [1],2.76 ± 0.09
same,Kd,Xenopus IRBP Module 3; [2],160 ± 410 nM
same,"Binding sites (N), Quenching",Xenopus IRBP Module 3; [3],1.06 ± 0.07
same,Kd,Xenopus IRBP Module 3; [4],190 ± 30 nM
same,"Binding sites (N), Enhancement",Xenopus IRBP Module 4; [1],2.23 ± 0.09
same,Kd,Xenopus IRBP Module 4; [2],82 ± 37 nM
same,"Binding sites (N), Quenching",Xenopus IRBP Module 4; [3],0.30 ± 0.09
same,Kd,Xenopus IRBP Module 4; [4],160 ± 40 nM
same,"Binding sites (N), Enhancement",Xenopus IRBP Module 2; [1],1.49 ± 0.15
same,Kd,Xenopus IRBP Module 2; [2],250 ± 80 nM
same,"Binding sites (N), Quenching",Xenopus IRBP Module 2; [3],0.93 ± 0.06
same,Kd,Xenopus IRBP Module 2; [4],130 ± 20 nM
same,"Binding sites (N), Enhancement",Xenopus IRBP Module 1; [1],2.55 ± 0.24
same,Kd,Xenopus IRBP Module 1; [2],330 ± 150 nM
same,"Binding sites (N), Quenching",Xenopus IRBP Module 1; [3],0.97 ± 0.19
same,Kd,Xenopus IRBP Module 1; [4],420 ± 100 nM
